Results published in patent publication US8124793B2, “Derivatives of ethylene methanedisulfonate as cancer chemotherapeutic agents” (priority 2007, dated 2012).

What was measured:
Type in all cases: cell-based
HCT-15 = assay: NCI screen, growth of human tumor cells: Colon Cancer HCT-15
Description: (§1) In the NCI screening process, each compound was tested and described by a minimum of 60 data points. The test data include, but are not limited to the type of cancer, the molar concentration used in the screen, and the percent growth of the cancer. In some cases, NMR and elemental analysis were used for structural assignment.

ACHN = assay: NCI screen, growth of human tumor cells: Renal Cancer ACHN; conditions: ACHN (Renal Cancer), 10^−4 molar
Description: as §1

PC-3 = assay: NCI screen, growth of human tumor cells: Prostate Cancer PC-3; conditions: PC-3 (Prostate Cancer), 10^−4 molar
Description: as §1

NCI-H23 = assay: NCI screen, growth of human tumor cells: Non-Small Cell Lung NCI-H23; conditions: NCI-H23 (Non-Small Cell Lung), 10^−4 molar
Description: as §1

MDA-MB-231/ATCC = assay: NCI screen, growth of human tumor cells: Breast Cancer MDA-MB-231/ATCC; conditions: MDA-MB-231/ATCC (Breast Cancer), 10^−4 molar
Description: as §1

MALME-3M = assay: NCI screen, growth of human tumor cells: Melanoma MALME-3M; conditions: MALME-3M (Melanoma), 10^−4 molar
Description: as §1

human cancer cells = assay: NCI screen summary over the cancers tested (negative growth of human cancer cells); conditions: 10^−4 M conc.; cancers with negative growth / cancers tested
Description: as §1
The derivatives in the tables are grouped using the same category as in the tables 1-6.

CAKI-1 = assay: NCI screen, growth of human tumor cells: Renal Cancer CAKI-1; conditions: CAKI-1 (Renal Cancer), 10^−4 molar
Description: as §1

EKVX = assay: NCI screen, growth of human tumor cells: Non-Small Cell Lung EKVX; conditions: EKVX
Description: as §1

NCI-H460 = assay: NCI screen, growth of human tumor cells: Non-Small Cell Lung NCI-H460; conditions: NCI-H460 (Non-Small Cell Lung), 10^−4 molar
Description: as §1

M14 = assay: NCI screen, growth of human tumor cells: Melanoma M14; conditions: M14 (Melanoma), 10^−4 molar
Description: as §1

MCF7/ADR-RES = assay: NCI screen, growth of human tumor cells: Breast Cancer MCF7/ADR-RES; conditions: MCF7/ADR-RES (Breast Cancer), 10^−4 molar
Description: as §1

IGROVI = assay: NCI screen, growth of human tumor cells: Ovarian Cancer IGROVI; conditions: for % Growth: IGROVI
Description: as §1

OVCAR-8 = assay: NCI screen, growth of human tumor cells: Ovarian Cancer OVCAR-8; conditions: OVCAR-8 (Ovarian Cancer), 10^−4 molar
Description: as §1

MCF 7 = assay: NCI screen, growth of human tumor cells: Breast Cancer MCF 7; conditions: MCF 7 (Breast Cancer), 10^−4 molar
Description: as §1

OVCAR-3 = assay: NCI screen, growth of human tumor cells: Ovarian Cancer OVCAR-3; conditions: OVCAR-3 (Ovarian Cancer), 10^−4 molar
Description: as §1

COLO205 = assay: NCI screen, growth of human tumor cells: Colon Cancer COLO205; conditions: COLO205 (Colon Cancer), 10^−4 molar
Description: as §1

HCT-116 = assay: NCI screen, growth of human tumor cells: Colon Cancer HCT-116
Description: as §1

KM12 = assay: NCI screen, growth of human tumor cells: Colon Cancer KM12; conditions: KM12 (Colon Cancer), 10^−4 molar
Description: as §1

HS 578T = assay: NCI screen, growth of human tumor cells: Breast Cancer HS 578T; conditions: HS 578T (Breast Cancer), 10^−4 molar
Description: as §1

RPMI-8226 = assay: NCI screen, growth of human tumor cells: Leukemia RPMI-8226; conditions: RPMI-8226 (Leukemia), 10^−4 molar
Description: as §1

K562 = assay: NCI screen, growth of human tumor cells: Leukemia K562; conditions: K562 (Leukemia), 10^−4 molar
Description: as §1

UACC-62 = assay: NCI screen, growth of human tumor cells: Melanoma UACC-62; conditions: UACC-62 (Melanoma), 10^−4 molar
Description: as §1

UO-31 = assay: NCI screen, growth of human tumor cells: Renal Cancer UO-31; conditions: UO-31 (Renal Cancer), 10^−4 molar
Description: as §1

DU-145 = assay: NCI screen, growth of human tumor cells: Prostate Cancer DU-145; conditions: DU-145 (Prostate Cancer), 10^−4 molar
Description: as §1

SR = assay: NCI screen, growth of human tumor cells: Leukemia SR; conditions: SR (Leukemia), 10^−4 molar
Description: as §1

BT-549 = assay: NCI screen, growth of human tumor cells: Breast Cancer BT-549; conditions: BT-549 (Breast Cancer), 10^−4 molar
Description: as §1

NCI-H226 = assay: NCI screen, growth of human tumor cells: Non-Small Cell Lung NCI-H226; conditions: NCI-H226 (Non-Small Cell Lung), 10^−4 molar
Description: as §1

U-251 = assay: NCI screen, growth of human tumor cells: CNS Cancer U-251; conditions: U251, 10^−4 molar
Description: as §1

SW620 = assay: NCI screen, growth of human tumor cells: Colon Cancer SW620; conditions: SW620 (Colon Cancer), 10^−4 molar
Description: as §1

SF-539 = assay: NCI screen, growth of human tumor cells: CNS Cancer SF-539; conditions: SF-539 (CNS Cancer), 10^−4 molar
Description: as §1

CCRF-CEM = assay: NCI screen, growth of human tumor cells: Leukemia CCRF-CEM; conditions: CCRF-CEM (Leukemia), 10^−4 molar
Description: as §1

SNB-19 = assay: NCI screen, growth of human tumor cells: CNS Cancer SNB-19; conditions: SNB-19 (CNS Cancer), 10^−4 molar
Description: as §1

SN12C = assay: NCI screen, growth of human tumor cells: Renal Cancer SN12C; conditions: SN12C (Renal Cancer), 10^−4 molar
Description: as §1

OVCAR-5 = assay: NCI screen, growth of human tumor cells: Ovarian Cancer OVCAR-5; conditions: OVCAR-5 (Ovarian Cancer), 10^−4 molar
Description: as §1

SF-268 = assay: NCI screen, growth of human tumor cells: CNS Cancer SF-268; conditions: SF-268 (CNS Cancer), 10^−4 molar
Description: as §1

HT29 = assay: NCI screen, growth of human tumor cells: Colon Cancer HT29; conditions: HT29 (Colon Cancer), 10^−4 molar
Description: as §1

786-0 = assay: NCI screen, growth of human tumor cells: Renal Cancer 786-0; conditions: 786-0 (Renal Cancer), 10^−4 molar
Description: as §1

RXF-393 = assay: NCI screen, growth of human tumor cells: Renal Cancer RXF-393; conditions: RXF-393 (Renal Cancer), 10^−4 molar
Description: as §1

HOP-92 = assay: NCI screen, growth of human tumor cells: Non-Small Cell Lung HOP-92; conditions: HOP-92 (Non-Small Cell Lung), 10^−4 molar
Description: as §1

UACC-257 = assay: NCI screen, growth of human tumor cells: Melanoma UACC-257; conditions: UACC-257 (Melanoma), 10^−4 molar
Description: as §1

SK-MEL-28 = assay: NCI screen, growth of human tumor cells: Melanoma SK-MEL-28; conditions: SK-MEL-28 (Melanoma), 10^−4 molar
Description: as §1

HOP-62 = assay: NCI screen, growth of human tumor cells: Non-Small Cell Lung HOP-62; conditions: HOP-62 (Non-Small Cell Lung), 10^−4 molar
Description: as §1

## O=C(c1ccccc1S(=O)(=O)O)C1S(=O)(=O)OCCOS1(=O)=O [NSC 693880]
HCT-15; HCT-15, 10^−4 molar
  % Growth: −41%
HCT-15; HCT-15, 10^−5 molar
  % Growth: 40%
ACHN
  percent of growth of human tumor cells: 8%
PC-3
  percent of growth of human tumor cells: 5%
NCI-H23
  percent of growth of human tumor cells: 12%
MDA-MB-231/ATCC
  percent of growth of human tumor cells: 25%
MALME-3M
  percent of growth of human tumor cells: −15%
Human cancer cells
  Percentage of cancers showing negative growth cancers tested: 10^−4 M conc. = 8/17 = 47%
CAKI-1
  percent of growth of human tumor cells: −8%
EKVX; 10^−4 molar
  % Growth: 25%
EKVX; 10^−5 molar
  % Growth: 6%
NCI-H460
  percent of growth of human tumor cells: −11%
M14
  percent of growth of human tumor cells: −4%
MCF7/ADR-RES
  percent of growth of human tumor cells: 4%
IGROVI; 10^−4 molar
  % Growth: −21%
IGROVI; 10^−5 molar
  % Growth: 37%
IGROVI; 10^−6 molar
  % Growth: 60%
OVCAR-8
  percent of growth of human tumor cells: −33%
MCF 7
  percent of growth of human tumor cells: −1%
OVCAR-3
  percent of growth of human tumor cells: 76%
COLO205
  percent of growth of human tumor cells: 5%
HCT-116; HCT-116 (Colon Cancer), 10^−4 molar
  percent of growth of human tumor cells: 20%

## CC=CC(=O)C1(Cc2ccc3c(c2)C(=O)c2ccccc2C3=O)S(=O)(=O)OCCOS1(=O)=O [NSC 731263]
HCT-15; HCT-15, 10^−4 molar
  % Growth: −65%
KM12
  percent of growth of human tumor cells: 2%
HS 578T
  percent of growth of human tumor cells: −18%
RPMI-8226
  percent of growth of human tumor cells: −7%
PC-3
  percent of growth of human tumor cells: 11%
K562
  percent of growth of human tumor cells: 12%
UACC-62
  percent of growth of human tumor cells: 16%
UO-31
  percent of growth of human tumor cells: 1%
NCI-H23
  percent of growth of human tumor cells: 31%
DU-145
  percent of growth of human tumor cells: 1%
MDA-MB-231/ATCC
  percent of growth of human tumor cells: −33%
SR
  percent of growth of human tumor cells: 24%
Human cancer cells
  Percentage of cancers showing negative growth cancers tested: 10^−4 M conc. = 18/36 = 50%
BT-549
  percent of growth of human tumor cells: −20%
NCI-H226
  percent of growth of human tumor cells: 10%
U-251
  % Growth: −85%
SW620
  percent of growth of human tumor cells: −38%
SF-539
  percent of growth of human tumor cells: −23%
NCI-H460
  percent of growth of human tumor cells: 2%
CCRF-CEM
  percent of growth of human tumor cells: 15%
SNB-19
  percent of growth of human tumor cells: 10%
SN12C
  percent of growth of human tumor cells: −53%
OVCAR-5
  percent of growth of human tumor cells: 20%
SF-268
  percent of growth of human tumor cells: −24%
HT29
  percent of growth of human tumor cells: 1%
786-0
  percent of growth of human tumor cells: 1%
RXF-393
  percent of growth of human tumor cells: −45%
HOP-92
  percent of growth of human tumor cells: −16%
UACC-257
  percent of growth of human tumor cells: −20%
MCF7/ADR-RES
  percent of growth of human tumor cells: 11%
IGROVI; IGROVI (Ovarian Cancer), 10^−4 molar
  percent of growth of human tumor cells: 3%
OVCAR-8
  percent of growth of human tumor cells: −39%
SK-MEL-28
  percent of growth of human tumor cells: −23%
MCF 7
  percent of growth of human tumor cells: −17%
HOP-62
  percent of growth of human tumor cells: −38%
COLO205
  percent of growth of human tumor cells: 5%
HCT-116; HCT-116, 10^−4 molar
  % Growth: −100%
